# According to publication PMC9570109, “Improved Trimethylangelicin Analogs for Cystic Fibrosis: Design, Synthesis and Preliminary Screening” (International Journal of Molecular Sciences, 2022):
# How the values were obtained:
# [1] = system: Salmonella typhimurium TA97A; experiment: Ames mutagenicity assay, plate incorporation, TA97A; format: cell-based
# Description: The mutagenicity assay was performed for the test compounds following the plate incorporation method with the histidine-requiring Salmonella typhimurium mutant TA97A, TA98, TA100, and TA1535 strains purchased by Molecular Toxicology Inc. (Boone, NC, USA; moltox.com). All strains (100 µL per plate of fresh overnight cultures) were checked with and without the addition of 0.5 mL of a 5% S9 exogenous metabolic activator (S9 mix). The lyophilized post-mitochondrial supernatant S9 mix (Aroclor 1254-induced, Sprague–Dawley male rat liver in 0.154 M KCl solution), commonly used for the activation of pro-mutagens in mutagenic metabolites (Molecular Toxicology, Inc., Boone, NC, USA), was stored at −80 °C before use. The concentration tested for all the samples were 5, 10, 20, 50, and 100 µL/plate from a stock solution of 500 nM. A fully grown culture of the appropriate tester strain (0.1 mL) was added to 2 mL molten top agar (0.6% agar, 0.6% NaCl, 0.5 mM L-histidine/biotin solution) at 46 °C, together with 0.1 mL of each sample solution at different concentrations, and 0.5 mL S9 mix for assays with metabolic activation. The ingredients were thoroughly mixed and poured onto minimal glucose agar plates (1.5% agar in 2% Vogel–Bonner medium E with 5% glucose solution). DMSO was used as negative a control (100 µL/plate). Positive controls were prepared as follows: 2-aminoanthracene (2 µg/plate) and 2-nitrofluorene (2 µg/plate) for TA 97A, TA98 and TA1535 with and without metabolic activator (S9 mix), respectively; 2-aminoanthracene (2 µg/plate) and sodium azide (2 µg/plate) for TA100, with and without metabolic activator (S9 mix), respectively. The plates were incubated at 37 °C for 72 h and then his+ revertants were checked and counted using a Colony Counter 560 Suntex (Antibioticos, Italy). A sample was considered mutagenic when the observed number of colonies was at least twofold over the spontaneous level of revertants. All determinations were made in triplicate. Statistical analysis: relative standard deviations were calculated using the statistical software STATISTICA 6.0 (StatSoft, Italia srl, Vigonza, Italy). […]
# Salmonella typhimurium TA97A Salmonella typhimurium TA98 Salmonella typhimurium TA100 Salmonella typhimurium 1535 […]
# average SD t/c average SD t/c average SD t/c average SD t/c average SD t/c average SD t/c average SD t/c average SD t/c […]
# *Significant values according to Ames computation (Maron & Ames, 1983); DMSO, C+: negative and positive controls respectively; SD: Standard Deviation; t/c: number of revertant colonies in treated plates/number of revertant colonies in […]
# [2] = system: Salmonella typhimurium mutant TA97A, TA98, TA100, and TA1535 strains; experiment: Ames test, overall result on all strains; format: cell-based; conditions: all concentrations, with and without S9 mix
# Description: To investigate whether changes in the structure of TMA abolish the mutagenic effect observed with this class of compounds, the most promising TMA analogs were evaluated by the Ames test. Compounds 4-PhDMA and pANDMA were tested for genotoxicity evaluation using the histidine-requiring Salmonella typhimurium mutant TA97A, TA98, TA100, and TA1535 strains that allow checking frameshift mutation and base pair substitution, with and without metabolic activation induced by S9 Mix.
# The number of spontaneous revertants is relatively constant, but it dramatically increases—generally in a dose-dependent way—when a mutagen is added to the plate. […]
# The mutagenicity assay was performed for the test compounds following the plate incorporation method with the histidine-requiring Salmonella typhimurium mutant TA97A, TA98, TA100, and TA1535 strains purchased by Molecular Toxicology Inc. (Boone, NC, USA; moltox.com). […] The plates were incubated at 37 °C for 72 h and then his+ revertants were checked and counted using a Colony Counter 560 Suntex (Antibioticos, Italy). […] Statistical analysis: relative standard deviations were calculated using the statistical software STATISTICA 6.0 (StatSoft, Italia srl, Vigonza, Italy).
# HepG2 cells = experiment: Cytotoxicity MTT assay on HepG2 cells; conditions: HepG2, 24 h, highest concentration tested (50 μM)
# Description: The potential toxicity of TMA analogs on hepatic tissue was assessed by evaluating the viability of HepG2 cells (ATCC, HB-8065) using the MTT assay, as previously reported [22]. Cells were maintained in DMEM complete medium (10% FBS, 1% l-glutamine and 1% PEN-STREP) and seeded in a 96-well plate (5 × 10^4 cells/mL). They were treated for 24 h with TMA analogs (concentration range from 3.125 μM to 50 μM). At the end of the treatment, cells were washed and an MTT solution (0.5 mg/mL in complete medium) was added to each well and incubated for 4 h at 37 °C. The solution was discarded, and the produced blue formazan crystals were dissolved with acidified isopropanol (2% HCl). Absorbance was measured at 570 nm using a multiplate reader (Victor Nivo, Perkin Elmer). The percentage of viable cells was calculated considering untreated cells as control.
# The data shown in this figure are the results of three independent experiments, each
# performed in quadruplicate.
# [3] = +S9, 5 µL/plate of 500 nM stock
# [4] = +S9, 10 µL/plate of 500 nM stock
# [5] = +S9, 20 µL/plate of 500 nM stock
# [6] = +S9, 50 µL/plate of 500 nM stock
# [7] = +S9, 100 µL/plate of 500 nM stock
# [8] = -S9, 5 µL/plate of 500 nM stock
# [9] = -S9, 10 µL/plate of 500 nM stock
# [10] = -S9, 20 µL/plate of 500 nM stock
# [11] = -S9, 50 µL/plate of 500 nM stock
# [12] = -S9, 100 µL/plate of 500 nM stock
Structure (SMILES),"revertant colonies, average [1, 3]","t/c (revertant colonies treated/untreated plates) [1, 3]","revertant colonies, average [1, 4]","t/c (revertant colonies treated/untreated plates) [1, 4]","revertant colonies, average [1, 5]","t/c (revertant colonies treated/untreated plates) [1, 5]","revertant colonies, average [1, 6]","t/c (revertant colonies treated/untreated plates) [1, 6]","revertant colonies, average [1, 7]","t/c (revertant colonies treated/untreated plates) [1, 7]","revertant colonies, average [1, 8]","t/c (revertant colonies treated/untreated plates) [1, 8]","revertant colonies, average [1, 9]","t/c (revertant colonies treated/untreated plates) [1, 9]","revertant colonies, average [1, 10]","t/c (revertant colonies treated/untreated plates) [1, 10]","revertant colonies, average [1, 11]","t/c (revertant colonies treated/untreated plates) [1, 11]","revertant colonies, average [1, 12]","t/c (revertant colonies treated/untreated plates) [1, 12]",also measured
Cc1cc2c(-c3ccccc3)cc(=O)oc2c2c(C)coc12 [4-PhDMA],87.0,0.8,117.0,1.1,98.0,0.9,94.0,0.9,109.5,1.0,79.5,1.0,82.5,1.1,82.0,1.1,82.5,1.1,82.5,1.1,genotoxic activity (Ames test) [2]: non-genotoxic; cell viability (HepG2 cells): greater than 75%
Cc1cc(=O)oc2c1cc(-c1ccc(N)cc1)c1occ(C)c12 [pANDMA],88.5,0.8,100.5,0.9,92.5,0.8,104.5,1.0,101.0,0.9,82.5,1.1,80.5,1.0,82.0,1.1,86.5,1.1,86.0,1.1,genotoxic activity (Ames test) [2]: non-genotoxic; cell viability (HepG2 cells): greater than 75%
Cc1cc(=O)oc2c1cc(-c1ccccc1)c1occ(C)c12 [6-PhDMA],116.5,1.1,92.5,0.8,99.0,0.9,107.0,1.0,101.0,0.9,75.0,1.0,69.5,0.9,86.5,1.1,79.5,1.0,88.5,1.1,
